Experimental data as given in ChEMBL document CHEMBL4390652, “Design, biological evaluation and X-ray crystallography of nanomolar multifunctional ligands targeting simultaneously acetylcholinesterase and glycogen synthase kinase-3” (Eur J Med Chem, 2019).

Tests used:
[1] = molecular target: Mitogen-activated protein kinase kinase kinase 4 (Homo sapiens) (UniProt Q9Y6R4); assay: Binding affinity to wild-type human partial length MAP3K4 (G1319 to E1608 residues) expressed in bacterial expression system assessed as residual binding level at 10 uM by Kinomescan method relative to control
[2] = test system: ALK tyrosine kinase receptor (Homo sapiens), Q9UM73 [C1156Y]; assay: Binding affinity to wild-type human partial length ALK C1156Y mutant (I1088 to E1409 residues) expressed in mammalian expression system assessed as residual binding level at 10 uM by Kinomescan method relative to control
[3] = molecular target: Serine/threonine-protein kinase PAK 2 (Homo sapiens) (UniProt Q13177); assay: Binding affinity to wild-type human partial length PAK2 (P151 to R525 residues) expressed in bacterial expression system assessed as residual binding level at 10 uM by Kinomescan method relative to control
[4] = molecular target: Mitogen-activated protein kinase 12 (Homo sapiens) (UniProt P53778); assay: Binding affinity to wild-type human full length p38-gamma (M1 to L367 residues) expressed in mammalian expression system assessed as residual binding level at 10 uM by Kinomescan method relative to control
[5] = molecular target: Rho-associated protein kinase 2 (Homo sapiens) (UniProt O75116); assay: Binding affinity to wild-type human partial length ROCK2 (M1 to T431 residues) expressed in mammalian expression system assessed as residual binding level at 10 uM by Kinomescan method relative to control
[6] = molecular target: Non-receptor tyrosine-protein kinase TYK2 (Homo sapiens) (UniProt P29597); assay: Binding affinity to wild-type human partial length TYK2 JH1 catalytic domain (V877 to C1187 residues) expressed in mammalian expression system assessed as residual binding level at 10 uM by Kinomescan method relative to control
[7] = molecular target: Activin receptor type-2A (Homo sapiens) (UniProt P27037); assay: Binding affinity to wild-type human ACVR2A (V171 to T499 residues) expressed in bacterial expression system assessed as residual binding level at 10 uM by Kinomescan method relative to control
[8] = molecular target: Serine/threonine-protein kinase Nek6 (Homo sapiens) (UniProt Q9HC98); assay: Binding affinity to wild-type human full length NEK6 (M8 to T313 residues) expressed in bacterial expression system assessed as residual binding level at 10 uM by Kinomescan method relative to control
MDR1 = assay: in vitro; conditions: dog, MDCK-MDR1
Description: Efflux ratio of apparent permeability from basolateral to apical over apical to basolateral side in MDCK2-MDR1 cells by HPLC analysis

[9] = test system: Epidermal growth factor receptor (Homo sapiens), P00533 [UNDEFINED MUTATION]; assay: Binding affinity to human partial length EGFR S752-I759del mutant expressed in bacterial expression system assessed as residual binding level at 10 uM by Kinomescan method relative to control
[10] = molecular target: Ribosomal protein S6 kinase alpha-3 (Homo sapiens) (UniProt P51812); assay: Binding affinity to wild-type human partial length N-terminal RSK2 kinase domain 1 (M1 to D394 residues) expressed in mammalian expression system assessed as residual binding level at 10 uM by Kinomescan method relative to control
[11] = molecular target: ALK tyrosine kinase receptor (Homo sapiens) (UniProt Q9UM73); assay: Binding affinity to wild-type human partial length ALK (I1088 to E1409 residues) expressed in mammalian expression system assessed as residual binding level at 10 uM by Kinomescan method relative to control
[12] = molecular target: Serine/threonine-protein kinase 17B (Homo sapiens) (UniProt O94768); assay: Binding affinity to wild-type human full length DRAK2 (M1 to C372 residues) expressed in bacterial expression system assessed as residual binding level at 10 uM by Kinomescan method relative to control
[13] = molecular target: cGMP-dependent protein kinase 2 (Homo sapiens) (UniProt Q13237); assay: Binding affinity to wild-type human partial length PRKG2 (S422 to F762 residues) expressed in mammalian expression system assessed as residual binding level at 10 uM by Kinomescan method relative to control
[14] = molecular target: Activin receptor type-2B (Homo sapiens) (UniProt Q13705); assay: Binding affinity to wild-type human ACVR2B (H169 to D504 residues) expressed in bacterial expression system assessed as residual binding level at 10 uM by Kinomescan method relative to control
[15] = molecular target: Mast/stem cell growth factor receptor Kit (Homo sapiens) (UniProt P10721); assay: Binding affinity to wild-type human partial length autoinhibited KIT (Y545 to D952 residues) expressed in mammalian expression system assessed as residual binding level at 10 uM by Kinomescan method relative to control
[16] = test system: Tyrosine-protein kinase ABL1 (Homo sapiens), P00519 [F317L]; assay: Binding affinity to human phosphorylated ABL1 F317L mutant (S229 to K512 residues) expressed in mammalian expression system assessed as residual binding level at 10 uM by Kinomescan method relative to control
[17] = molecular target: Calcium/calmodulin-dependent protein kinase type 1G (Homo sapiens) (UniProt Q96NX5); assay: Binding affinity to wild-type human partial length CAMK1G (M1 to A342 residues) expressed in bacterial expression system assessed as residual binding level at 10 uM by Kinomescan method relative to control
[18] = molecular target: Tyrosine-protein kinase ABL1 (Homo sapiens) (UniProt P00519); assay: Binding affinity to wild-type human non-phosphorylated ABL1 (S229 to K512 residues) expressed in mammalian expression system assessed as residual binding level at 10 uM by Kinomescan method relative to control
[19] = molecular target: Ephrin type-A receptor 1 (Homo sapiens) (UniProt P21709); assay: Binding affinity to wild-type human partial length EPHA1 (V588 to I913 residues) expressed in bacterial expression system assessed as residual binding level at 10 uM by Kinomescan method relative to control
[20] = molecular target: Dual specificity mitogen-activated protein kinase kinase 7 (Homo sapiens) (UniProt O14733); assay: Binding affinity to wild-type human full length MKK7 (M1 to R419 residues) expressed in mammalian expression system assessed as residual binding level at 10 uM by Kinomescan method relative to control
[21] = molecular target: Serine/threonine-protein kinase Sgk3 (Homo sapiens) (UniProt Q96BR1); assay: Binding affinity to wild-type human partial length SGK3 (M119 to L496 residues) expressed in mammalian expression system assessed as residual binding level at 10 uM by Kinomescan method relative to control
[22] = molecular target: AP2-associated protein kinase 1 (Homo sapiens) (UniProt Q2M2I8); assay: Binding affinity to human wild-type AAK1 (G25 to L333 residues) expressed in bacterial expression system assessed as residual binding level at 10 uM by Kinomescan method relative to control
[23] = molecular target: Dual specificity mitogen-activated protein kinase kinase 2 (Homo sapiens) (UniProt P36507); assay: Binding affinity to wild-type human full length MEK2 (M1 to V400 residues) expressed in mammalian expression system assessed as residual binding level at 10 uM by Kinomescan method relative to control
[24] = test system: Tyrosine-protein kinase ABL1 (Homo sapiens), P00519 [F317I]; assay: Binding affinity to human non-phosphorylated ABL1 F317I mutant (S229 to K512 residues) expressed in mammalian expression system assessed as residual binding level at 10 uM by Kinomescan method relative to control

Chain of ALK tyrosine kinase receptor (Homo sapiens), Q9UM73 [C1156Y] (Q9UM73 whole entry C1156Y, looked up, the tested form may be a part): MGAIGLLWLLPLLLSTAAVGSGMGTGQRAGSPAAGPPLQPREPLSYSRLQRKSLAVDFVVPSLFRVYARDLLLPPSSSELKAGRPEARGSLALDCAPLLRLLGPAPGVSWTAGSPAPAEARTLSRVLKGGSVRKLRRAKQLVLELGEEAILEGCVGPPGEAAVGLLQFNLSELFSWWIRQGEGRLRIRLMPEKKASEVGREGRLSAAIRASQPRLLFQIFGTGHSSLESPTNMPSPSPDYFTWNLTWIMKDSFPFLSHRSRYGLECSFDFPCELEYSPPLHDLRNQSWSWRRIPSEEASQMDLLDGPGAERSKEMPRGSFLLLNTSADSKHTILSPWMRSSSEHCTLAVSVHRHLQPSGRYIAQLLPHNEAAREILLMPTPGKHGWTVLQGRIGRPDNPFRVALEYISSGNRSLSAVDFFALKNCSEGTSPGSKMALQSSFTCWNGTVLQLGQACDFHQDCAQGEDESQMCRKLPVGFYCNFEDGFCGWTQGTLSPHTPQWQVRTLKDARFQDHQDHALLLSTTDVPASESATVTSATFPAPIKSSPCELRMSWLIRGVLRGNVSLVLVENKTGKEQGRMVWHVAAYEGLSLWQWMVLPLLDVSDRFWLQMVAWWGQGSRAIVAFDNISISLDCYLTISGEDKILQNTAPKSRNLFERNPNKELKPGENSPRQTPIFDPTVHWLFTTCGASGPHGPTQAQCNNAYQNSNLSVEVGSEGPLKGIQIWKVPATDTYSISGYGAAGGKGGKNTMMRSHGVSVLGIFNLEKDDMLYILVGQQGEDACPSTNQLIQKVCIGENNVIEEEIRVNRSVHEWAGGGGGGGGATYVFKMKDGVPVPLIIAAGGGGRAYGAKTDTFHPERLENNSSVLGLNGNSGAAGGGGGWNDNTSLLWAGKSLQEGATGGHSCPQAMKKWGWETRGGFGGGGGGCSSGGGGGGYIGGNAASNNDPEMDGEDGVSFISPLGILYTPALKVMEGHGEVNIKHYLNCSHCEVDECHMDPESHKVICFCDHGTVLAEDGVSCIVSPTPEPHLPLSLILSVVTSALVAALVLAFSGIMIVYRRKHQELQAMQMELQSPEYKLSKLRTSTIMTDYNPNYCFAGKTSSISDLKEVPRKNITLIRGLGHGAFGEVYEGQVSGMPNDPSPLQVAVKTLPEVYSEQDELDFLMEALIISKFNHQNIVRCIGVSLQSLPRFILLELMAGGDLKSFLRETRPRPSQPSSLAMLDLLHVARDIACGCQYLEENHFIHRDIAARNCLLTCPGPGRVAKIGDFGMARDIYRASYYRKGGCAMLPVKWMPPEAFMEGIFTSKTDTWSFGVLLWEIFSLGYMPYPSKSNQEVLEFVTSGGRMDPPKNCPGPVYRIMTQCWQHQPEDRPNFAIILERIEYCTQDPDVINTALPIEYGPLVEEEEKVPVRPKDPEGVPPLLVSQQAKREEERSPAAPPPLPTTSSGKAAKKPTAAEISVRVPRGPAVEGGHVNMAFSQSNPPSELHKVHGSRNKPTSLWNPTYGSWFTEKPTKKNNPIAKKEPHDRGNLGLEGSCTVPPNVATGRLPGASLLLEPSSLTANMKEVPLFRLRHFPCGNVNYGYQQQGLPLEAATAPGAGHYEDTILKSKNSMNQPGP
Chain of Tyrosine-protein kinase ABL1 (Homo sapiens), P00519 [F317L] (P00519 whole entry F317L, the tested form may be a part): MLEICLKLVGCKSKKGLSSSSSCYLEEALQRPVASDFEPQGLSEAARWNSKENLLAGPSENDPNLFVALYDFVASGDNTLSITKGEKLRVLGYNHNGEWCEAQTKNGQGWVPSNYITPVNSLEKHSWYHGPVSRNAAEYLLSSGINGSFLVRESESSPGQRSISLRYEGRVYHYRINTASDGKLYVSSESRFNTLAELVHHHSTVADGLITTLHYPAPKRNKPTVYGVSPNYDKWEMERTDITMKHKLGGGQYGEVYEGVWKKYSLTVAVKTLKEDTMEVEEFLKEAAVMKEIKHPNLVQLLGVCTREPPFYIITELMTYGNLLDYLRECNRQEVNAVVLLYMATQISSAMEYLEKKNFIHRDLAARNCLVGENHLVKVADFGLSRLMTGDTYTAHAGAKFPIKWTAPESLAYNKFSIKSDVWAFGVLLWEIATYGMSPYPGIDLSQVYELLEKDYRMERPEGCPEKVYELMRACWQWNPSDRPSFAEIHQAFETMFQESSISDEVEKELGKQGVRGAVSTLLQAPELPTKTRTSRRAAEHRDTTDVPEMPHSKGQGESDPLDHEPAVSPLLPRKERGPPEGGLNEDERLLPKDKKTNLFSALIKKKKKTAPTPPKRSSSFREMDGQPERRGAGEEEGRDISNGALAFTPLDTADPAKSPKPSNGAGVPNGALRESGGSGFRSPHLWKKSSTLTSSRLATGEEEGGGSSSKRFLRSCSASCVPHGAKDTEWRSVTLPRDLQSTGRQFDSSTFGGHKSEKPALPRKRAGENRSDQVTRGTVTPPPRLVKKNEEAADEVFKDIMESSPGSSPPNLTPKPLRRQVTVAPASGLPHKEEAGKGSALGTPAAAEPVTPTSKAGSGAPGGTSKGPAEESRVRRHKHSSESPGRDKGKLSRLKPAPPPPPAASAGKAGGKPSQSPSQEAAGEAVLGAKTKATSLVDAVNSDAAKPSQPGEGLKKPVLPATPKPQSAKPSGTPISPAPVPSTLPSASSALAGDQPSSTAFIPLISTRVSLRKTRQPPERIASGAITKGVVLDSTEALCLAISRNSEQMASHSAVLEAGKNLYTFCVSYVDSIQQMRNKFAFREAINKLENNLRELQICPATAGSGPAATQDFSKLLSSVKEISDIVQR
Chain of Serine/threonine-protein kinase PAK 2 (Homo sapiens) (Q13177 whole entry, the tested form may be a part): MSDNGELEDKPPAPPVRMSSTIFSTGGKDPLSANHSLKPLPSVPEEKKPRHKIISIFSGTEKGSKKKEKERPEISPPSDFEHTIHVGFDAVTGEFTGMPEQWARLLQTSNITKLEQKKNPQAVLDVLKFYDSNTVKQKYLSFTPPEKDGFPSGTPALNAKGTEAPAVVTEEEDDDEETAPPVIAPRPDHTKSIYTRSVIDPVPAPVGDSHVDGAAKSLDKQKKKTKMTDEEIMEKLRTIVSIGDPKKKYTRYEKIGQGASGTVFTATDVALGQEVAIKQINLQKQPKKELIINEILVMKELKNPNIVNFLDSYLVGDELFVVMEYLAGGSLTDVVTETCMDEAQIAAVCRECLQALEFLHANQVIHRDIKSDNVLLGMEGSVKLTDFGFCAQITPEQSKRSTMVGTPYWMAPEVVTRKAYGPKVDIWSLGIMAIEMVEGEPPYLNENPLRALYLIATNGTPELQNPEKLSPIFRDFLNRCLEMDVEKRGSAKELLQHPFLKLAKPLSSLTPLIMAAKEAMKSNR
Chain of Serine/threonine-protein kinase Nek6 (Homo sapiens) (Q9HC98 whole entry, the tested form may be a part): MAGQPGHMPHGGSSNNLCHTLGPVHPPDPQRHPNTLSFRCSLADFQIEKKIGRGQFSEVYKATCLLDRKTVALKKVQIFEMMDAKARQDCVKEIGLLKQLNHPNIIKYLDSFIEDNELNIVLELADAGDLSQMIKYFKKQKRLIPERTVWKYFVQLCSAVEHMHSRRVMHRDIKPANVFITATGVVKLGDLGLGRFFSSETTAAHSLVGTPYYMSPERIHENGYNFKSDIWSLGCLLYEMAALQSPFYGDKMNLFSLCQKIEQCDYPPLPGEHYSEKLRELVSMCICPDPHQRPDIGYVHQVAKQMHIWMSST
Chain of Tyrosine-protein kinase ABL1 (Homo sapiens) (P00519 whole entry, the tested form may be a part): as the sequence (P00519 whole entry F317L, the tested form may be a part) above, with L317F counted along it
Chain of Mitogen-activated protein kinase 12 (Homo sapiens) (P53778 whole entry, the tested form may be a part): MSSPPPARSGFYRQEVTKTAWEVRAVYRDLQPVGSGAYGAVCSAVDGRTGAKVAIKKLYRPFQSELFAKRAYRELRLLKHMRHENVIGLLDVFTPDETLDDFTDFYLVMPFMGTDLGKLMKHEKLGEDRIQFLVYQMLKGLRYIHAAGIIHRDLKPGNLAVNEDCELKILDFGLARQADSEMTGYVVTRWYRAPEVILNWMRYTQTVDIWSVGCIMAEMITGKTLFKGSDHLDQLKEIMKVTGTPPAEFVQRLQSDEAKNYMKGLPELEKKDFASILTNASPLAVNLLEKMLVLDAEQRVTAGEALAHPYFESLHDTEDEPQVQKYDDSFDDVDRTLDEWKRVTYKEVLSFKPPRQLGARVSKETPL

For `O=C(Nc1cc(-c2cn(CCNc3c4c(nc5ccccc35)CCCC4)nn2)ccn1)Nc1cccc2c1C1CCCCN1C2=O` (racemic), the Activity [1] was 79%, the Activity [2] was 100% and the Activity [3] was 34%. It also gave an Activity [4] of 5.7%, an Activity [5] of 26% and an Activity [6] of 39%. For the same compound, the Activity [7] was 100%, the Activity [8] was 28% and the efflux ratio (MDR1) was 1.51. For the same compound, the Activity [9] was 80%, the Activity [10] was 1.7% and the Activity [11] was 100%. The Activity [12] was 1.7%, the Activity [13] was 4.4% and the Activity [14] was 100%. For the same compound, the Activity [15] was 7%, the Activity [16] was 20% and the Activity [17] was 44%. For the same compound, the Activity [18] was 1.6%, the Activity [19] was 60% and the Activity [20] was 100%. For the same compound, the Activity [21] was 1.3%, the Activity [22] was 13% and the Activity [23] was 11%. It also gave an Activity [24] of 100%.
